Laboratory results: ChEMBL document CHEMBL3259803, “2012 Division of medicinal chemistry award address. Trekking the cannabinoid road: a personal perspective” (J Med Chem, 2014)

Target: Cannabinoid receptor 2 (Homo sapiens) (UniProt P34972)
Assay: Inhibition of [3H]CP-55940 binding to N-terminal FLAG-tagged/C-terminal 6His-tagged recombinant human CB2 receptor overexpressed in baculovirus infected insect Sf21 cells assessed as reduction of receptor Bmax at 10 nM after 1 hr relative to control

Sequence of Cannabinoid receptor 2 (Homo sapiens) (P34972 whole entry): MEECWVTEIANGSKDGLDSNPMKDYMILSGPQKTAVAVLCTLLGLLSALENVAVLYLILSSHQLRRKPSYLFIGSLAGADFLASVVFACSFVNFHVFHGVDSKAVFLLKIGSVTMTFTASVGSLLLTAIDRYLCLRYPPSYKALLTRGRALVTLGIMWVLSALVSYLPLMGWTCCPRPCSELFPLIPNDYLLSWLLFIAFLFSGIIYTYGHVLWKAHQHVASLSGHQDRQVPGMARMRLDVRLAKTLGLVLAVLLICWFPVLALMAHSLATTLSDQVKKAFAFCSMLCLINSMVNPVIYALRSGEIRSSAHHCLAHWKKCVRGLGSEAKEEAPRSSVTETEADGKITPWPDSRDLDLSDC

CC(C)(CCCCCCN=C=S)c1ccc2c(c1)OC(C)(C)[C@@H]1CC[C@@H](CO)C[C@@H]21
inhibition: 75%
